Measured values: US20220195389A1, “METHODS OF IMPROVING THE LONGEVITY OF IMMUNE CELLS” (University of Houston System, priority 2019, published 2022)

Tested on: T cells
Assay: T-cell viability after incubation with compound C
Format: cell-based, human
Settings: 10 μM dorsomorphin, 6-24 hours
Method: T cells were incubated with 10 μM dorsomorphin (Sigma Aldrich) for a period of 6-24 hours. The T cells were subsequently used for either motility assays or functional profiling using TIMING assays.

SMILES: c1cc(-c2cnn3cc(-c4ccc(OCCN5CCCCC5)cc4)cnc23)ccn1 [CC, dorsomorphin]
- impact on T-cell viability: did not have an impact
